Test results: ChEMBL document CHEMBL5303762, “Data for DCP probe BI-8668” (2023); call rule not given here
Each block holds one molecule with its values, some of them ahead of it.

Key:
[1] = molecular target: T1, Muscarinic acetylcholine receptor M2 (Homo sapiens) (UniProt P08172); experiment: M2/H Eurofins SafetyScreen44 (BI); settings: filed as antagonist, Compound concentration 10.0 uM
T1 sequence (whole entry): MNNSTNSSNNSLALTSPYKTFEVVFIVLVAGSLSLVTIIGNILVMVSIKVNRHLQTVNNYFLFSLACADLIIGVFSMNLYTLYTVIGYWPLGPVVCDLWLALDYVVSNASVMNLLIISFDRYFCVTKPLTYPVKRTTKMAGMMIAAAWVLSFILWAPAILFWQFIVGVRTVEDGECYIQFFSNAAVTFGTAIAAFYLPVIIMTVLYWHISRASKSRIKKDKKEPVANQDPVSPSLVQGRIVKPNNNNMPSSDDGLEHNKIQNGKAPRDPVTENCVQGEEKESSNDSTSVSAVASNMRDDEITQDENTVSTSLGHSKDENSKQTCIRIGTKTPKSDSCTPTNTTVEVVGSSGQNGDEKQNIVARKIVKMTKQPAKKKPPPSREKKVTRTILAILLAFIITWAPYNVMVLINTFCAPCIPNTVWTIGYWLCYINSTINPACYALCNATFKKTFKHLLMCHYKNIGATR

[2] = molecular target: T2, Muscarinic acetylcholine receptor M1 (Homo sapiens) (UniProt P11229); experiment: M1/H Eurofins SafetyScreen44 (BI); settings: Compound concentration 10.0 uM
T2 sequence (whole entry): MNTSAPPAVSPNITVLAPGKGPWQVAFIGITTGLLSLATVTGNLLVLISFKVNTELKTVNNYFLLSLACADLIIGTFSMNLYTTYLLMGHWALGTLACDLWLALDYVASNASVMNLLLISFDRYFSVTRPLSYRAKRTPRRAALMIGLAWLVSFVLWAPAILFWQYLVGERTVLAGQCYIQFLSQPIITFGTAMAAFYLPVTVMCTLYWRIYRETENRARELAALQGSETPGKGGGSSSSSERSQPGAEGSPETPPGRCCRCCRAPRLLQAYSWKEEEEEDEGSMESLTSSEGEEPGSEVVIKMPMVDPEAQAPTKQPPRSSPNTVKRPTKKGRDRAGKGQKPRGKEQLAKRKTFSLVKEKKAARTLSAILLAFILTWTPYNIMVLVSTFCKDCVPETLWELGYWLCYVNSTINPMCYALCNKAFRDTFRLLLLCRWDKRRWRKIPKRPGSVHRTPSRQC

[3] = molecular target: voltage-gated sodium channel (site 2) (Rattus norvegicus, UniProt F1LQQ7+O08562+O88420+O88457+P04774+P04775+P08104+P15389+P15390+Q62968); experiment: NA+/SITE2/R Eurofins SafetyScreen44 (BI); assay type: protein assay; settings: compound concentration 10 uM, read-out: % Ctrl
[4] = molecular target: Mu-type opioid receptor (Homo sapiens) (UniProt P35372); experiment: MU/H Eurofins SafetyScreen44 (BI); settings: Compound concentration 10.0 uM
[5] = molecular target: Beta-1 adrenergic receptor (Homo sapiens) (UniProt P08588); experiment: BETA1/HUM Eurofins SafetyScreen44 (BI); settings: Compound concentration 10.0 uM
[6] = molecular target: Sodium-dependent serotonin transporter (Homo sapiens) (UniProt P31645); experiment: SLC6A4/H Eurofins SafetyScreen44 (BI); settings: filed as antagonist, Compound concentration 10.0 uM
[7] = molecular target: 3',5'-cyclic-AMP phosphodiesterase 4D (Homo sapiens) (UniProt Q08499); experiment: PDE4D2 Eurofins SafetyScreen44 (BI); settings: Compound concentration 10.0 uM
[8] = molecular target: Endothelin-1 receptor (Homo sapiens) (UniProt P25101); experiment: ETA/H Eurofins SafetyScreen44 (BI); settings: Compound concentration 10.0 uM
[9] = molecular target: T3, 5-hydroxytryptamine receptor 3A (Homo sapiens) (UniProt P46098); experiment: 5HT3/H Eurofins SafetyScreen44 (BI); settings: Compound concentration 10.0 uM
T3 sequence (whole entry): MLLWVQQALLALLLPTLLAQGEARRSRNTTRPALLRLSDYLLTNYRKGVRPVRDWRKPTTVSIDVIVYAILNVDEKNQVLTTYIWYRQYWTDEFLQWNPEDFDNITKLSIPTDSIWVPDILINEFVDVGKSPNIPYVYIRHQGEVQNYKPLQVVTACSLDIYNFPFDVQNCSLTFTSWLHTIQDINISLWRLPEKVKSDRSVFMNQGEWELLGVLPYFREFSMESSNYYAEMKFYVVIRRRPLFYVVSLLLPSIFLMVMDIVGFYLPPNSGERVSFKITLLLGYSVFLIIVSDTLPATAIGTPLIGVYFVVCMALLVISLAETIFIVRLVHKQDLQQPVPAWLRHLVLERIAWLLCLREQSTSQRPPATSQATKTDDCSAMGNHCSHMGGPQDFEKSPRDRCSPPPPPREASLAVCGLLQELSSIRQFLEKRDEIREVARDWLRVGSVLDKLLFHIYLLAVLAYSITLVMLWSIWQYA

[10] = molecular target: D(1A) dopamine receptor (Homo sapiens) (UniProt P21728); experiment: D1/H Eurofins SafetyScreen44 (BI); settings: filed as antagonist, Compound concentration 10.0 uM
[11] = molecular target: Sodium-dependent noradrenaline transporter (Homo sapiens) (UniProt P23975); experiment: NEUP/H Eurofins SafetyScreen44 (BI); settings: Compound concentration 10.0 uM
[12] = molecular target: Glutamate NMDA receptor (Rattus norvegicus) (UniProt P35439+Q00959+Q00960+Q00961+Q62645+Q8VHN2+Q9R1M7); experiment: NMDA/R Eurofins SafetyScreen44 (BI); assay type: protein-complex assay; settings: Compound concentration 10.0 uM
[13] = molecular target: Androgen receptor (Homo sapiens) (UniProt P10275); experiment: ANDROGEN/H Eurofins SafetyScreen44 (BI); settings: Compound concentration 10.0 uM
[14] = molecular target: Vasopressin V1a receptor (Homo sapiens) (UniProt P37288); experiment: V1A/HUM Eurofins SafetyScreen44 (BI); settings: Compound concentration 10.0 uM
[15] = molecular target: Adenosine receptor A2a (Homo sapiens) (UniProt P29274); experiment: A2A/H Eurofins SafetyScreen44 (BI); settings: filed as antagonist, Compound concentration 10.0 uM
[16] = molecular target: Cannabinoid receptor 2 (Homo sapiens) (UniProt P34972); experiment: CB2/PERIPH/H Eurofins SafetyScreen44 (BI); settings: Compound concentration 10.0 uM
[17] = molecular target: 5-hydroxytryptamine receptor 1B (Rattus norvegicus) (UniProt P28564); experiment: 5HT1B/R Eurofins SafetyScreen44 (BI); settings: Compound concentration 10.0 uM
[18] = molecular target: Sodium-dependent dopamine transporter (Homo sapiens) (UniProt Q01959); settings: Compound concentration 10.0 uM
[19] = molecular target: Kappa-type opioid receptor (Homo sapiens) (UniProt P41145); settings: Compound concentration 10.0 uM
[20] = molecular target: T2, Muscarinic acetylcholine receptor M1 (Homo sapiens); settings: Compound concentration 10.0 uM
[21] = molecular target: Alpha-1D adrenergic receptor (Homo sapiens) (UniProt P25100); settings: Compound concentration 10.0 uM
Chain of Alpha-1D adrenergic receptor (Homo sapiens) (P25100 whole entry): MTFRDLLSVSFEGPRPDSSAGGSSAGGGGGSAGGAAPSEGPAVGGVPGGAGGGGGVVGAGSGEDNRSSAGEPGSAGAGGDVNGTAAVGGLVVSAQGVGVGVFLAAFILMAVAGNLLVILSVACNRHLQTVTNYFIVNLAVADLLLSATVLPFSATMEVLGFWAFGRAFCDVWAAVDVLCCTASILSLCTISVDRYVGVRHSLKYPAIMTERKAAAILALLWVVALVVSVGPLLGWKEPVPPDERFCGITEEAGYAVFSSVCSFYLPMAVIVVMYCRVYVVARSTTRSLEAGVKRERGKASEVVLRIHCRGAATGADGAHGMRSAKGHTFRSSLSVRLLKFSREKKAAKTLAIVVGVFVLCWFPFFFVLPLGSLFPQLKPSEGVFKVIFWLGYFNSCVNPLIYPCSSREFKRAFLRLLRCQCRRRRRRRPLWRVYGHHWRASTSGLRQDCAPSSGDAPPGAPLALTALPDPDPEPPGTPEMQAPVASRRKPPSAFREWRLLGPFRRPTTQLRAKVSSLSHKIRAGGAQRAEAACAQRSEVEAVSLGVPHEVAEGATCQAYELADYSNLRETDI

Chain of D(1A) dopamine receptor (Homo sapiens) (P21728 whole entry): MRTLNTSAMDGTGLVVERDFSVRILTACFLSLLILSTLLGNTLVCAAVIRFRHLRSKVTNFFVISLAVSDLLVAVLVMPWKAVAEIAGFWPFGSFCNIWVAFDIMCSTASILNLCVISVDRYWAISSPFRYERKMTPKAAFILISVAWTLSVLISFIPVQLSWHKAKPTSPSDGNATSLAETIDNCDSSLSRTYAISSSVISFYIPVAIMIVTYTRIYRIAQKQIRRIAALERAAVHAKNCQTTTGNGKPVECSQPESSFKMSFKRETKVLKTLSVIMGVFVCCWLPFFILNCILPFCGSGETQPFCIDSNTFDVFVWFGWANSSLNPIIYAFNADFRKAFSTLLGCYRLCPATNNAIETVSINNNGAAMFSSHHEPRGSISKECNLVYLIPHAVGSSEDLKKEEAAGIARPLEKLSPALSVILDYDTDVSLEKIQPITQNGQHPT
Chain of Vasopressin V1a receptor (Homo sapiens) (P37288 whole entry, looked up): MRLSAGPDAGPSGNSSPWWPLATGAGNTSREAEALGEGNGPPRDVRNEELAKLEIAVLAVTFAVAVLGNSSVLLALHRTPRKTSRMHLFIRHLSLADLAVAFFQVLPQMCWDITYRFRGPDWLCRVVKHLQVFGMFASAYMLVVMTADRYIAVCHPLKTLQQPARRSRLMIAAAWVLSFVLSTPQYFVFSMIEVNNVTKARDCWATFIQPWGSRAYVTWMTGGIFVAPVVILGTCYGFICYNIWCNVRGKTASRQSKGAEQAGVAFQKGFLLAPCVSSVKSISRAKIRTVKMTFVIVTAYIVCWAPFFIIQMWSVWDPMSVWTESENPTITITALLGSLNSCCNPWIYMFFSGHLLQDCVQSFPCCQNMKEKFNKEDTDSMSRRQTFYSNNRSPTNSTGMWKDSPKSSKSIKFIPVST
Chain of Cannabinoid receptor 2 (Homo sapiens) (P34972 whole entry): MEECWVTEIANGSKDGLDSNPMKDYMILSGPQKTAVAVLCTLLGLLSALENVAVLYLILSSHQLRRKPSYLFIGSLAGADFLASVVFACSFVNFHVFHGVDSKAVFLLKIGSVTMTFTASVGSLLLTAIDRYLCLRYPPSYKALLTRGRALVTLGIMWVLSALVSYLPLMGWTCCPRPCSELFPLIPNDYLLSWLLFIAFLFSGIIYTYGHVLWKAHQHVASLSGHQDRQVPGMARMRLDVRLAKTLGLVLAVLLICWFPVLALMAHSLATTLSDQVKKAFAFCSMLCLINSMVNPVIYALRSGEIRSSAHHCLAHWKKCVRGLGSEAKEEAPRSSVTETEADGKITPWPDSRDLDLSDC
Chain of Endothelin-1 receptor (Homo sapiens) (P25101 whole entry): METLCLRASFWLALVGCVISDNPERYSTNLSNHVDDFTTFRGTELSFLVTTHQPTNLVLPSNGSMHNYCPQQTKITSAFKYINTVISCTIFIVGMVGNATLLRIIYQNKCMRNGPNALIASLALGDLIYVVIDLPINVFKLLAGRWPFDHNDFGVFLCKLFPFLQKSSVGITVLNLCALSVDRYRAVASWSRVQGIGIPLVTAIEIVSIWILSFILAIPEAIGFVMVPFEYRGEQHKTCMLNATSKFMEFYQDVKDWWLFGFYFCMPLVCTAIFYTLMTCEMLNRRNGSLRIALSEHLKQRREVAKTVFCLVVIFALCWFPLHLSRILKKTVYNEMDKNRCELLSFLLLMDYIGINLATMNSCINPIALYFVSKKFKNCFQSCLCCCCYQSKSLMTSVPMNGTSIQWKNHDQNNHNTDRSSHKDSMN
Chain of 3',5'-cyclic-AMP phosphodiesterase 4D (Homo sapiens) (Q08499 whole entry): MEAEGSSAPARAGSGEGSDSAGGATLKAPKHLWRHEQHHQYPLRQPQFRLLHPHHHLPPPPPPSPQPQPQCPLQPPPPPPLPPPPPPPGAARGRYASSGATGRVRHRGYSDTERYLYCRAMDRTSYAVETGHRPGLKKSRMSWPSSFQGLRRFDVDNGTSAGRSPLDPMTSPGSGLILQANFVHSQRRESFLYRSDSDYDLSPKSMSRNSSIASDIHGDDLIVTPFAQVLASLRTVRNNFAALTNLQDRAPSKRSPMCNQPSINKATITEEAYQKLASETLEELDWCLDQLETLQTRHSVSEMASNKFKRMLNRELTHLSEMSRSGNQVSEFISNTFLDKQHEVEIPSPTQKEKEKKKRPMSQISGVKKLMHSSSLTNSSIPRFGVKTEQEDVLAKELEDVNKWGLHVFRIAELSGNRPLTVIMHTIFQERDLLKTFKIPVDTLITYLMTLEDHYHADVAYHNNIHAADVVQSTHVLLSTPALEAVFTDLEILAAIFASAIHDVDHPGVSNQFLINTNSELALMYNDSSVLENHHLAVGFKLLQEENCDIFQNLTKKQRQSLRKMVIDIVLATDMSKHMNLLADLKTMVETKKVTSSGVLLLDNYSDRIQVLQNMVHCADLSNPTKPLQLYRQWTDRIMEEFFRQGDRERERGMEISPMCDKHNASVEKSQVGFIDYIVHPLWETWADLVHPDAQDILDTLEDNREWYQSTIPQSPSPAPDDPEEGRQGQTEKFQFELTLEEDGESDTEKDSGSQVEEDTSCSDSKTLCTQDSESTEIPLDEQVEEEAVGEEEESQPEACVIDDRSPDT
Chain of Adenosine receptor A2a (Homo sapiens) (P29274 whole entry): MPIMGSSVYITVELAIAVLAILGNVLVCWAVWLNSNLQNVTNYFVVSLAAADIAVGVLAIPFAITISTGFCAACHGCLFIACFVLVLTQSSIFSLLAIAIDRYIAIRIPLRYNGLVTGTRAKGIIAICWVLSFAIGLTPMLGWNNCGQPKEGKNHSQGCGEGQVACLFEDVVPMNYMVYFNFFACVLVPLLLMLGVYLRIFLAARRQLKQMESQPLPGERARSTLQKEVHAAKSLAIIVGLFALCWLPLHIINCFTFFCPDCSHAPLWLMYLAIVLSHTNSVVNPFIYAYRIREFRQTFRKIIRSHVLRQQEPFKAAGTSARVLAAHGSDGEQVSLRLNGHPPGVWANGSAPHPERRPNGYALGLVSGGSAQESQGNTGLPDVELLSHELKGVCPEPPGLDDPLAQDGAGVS
Chain of Sodium-dependent noradrenaline transporter (Homo sapiens) (P23975 whole entry): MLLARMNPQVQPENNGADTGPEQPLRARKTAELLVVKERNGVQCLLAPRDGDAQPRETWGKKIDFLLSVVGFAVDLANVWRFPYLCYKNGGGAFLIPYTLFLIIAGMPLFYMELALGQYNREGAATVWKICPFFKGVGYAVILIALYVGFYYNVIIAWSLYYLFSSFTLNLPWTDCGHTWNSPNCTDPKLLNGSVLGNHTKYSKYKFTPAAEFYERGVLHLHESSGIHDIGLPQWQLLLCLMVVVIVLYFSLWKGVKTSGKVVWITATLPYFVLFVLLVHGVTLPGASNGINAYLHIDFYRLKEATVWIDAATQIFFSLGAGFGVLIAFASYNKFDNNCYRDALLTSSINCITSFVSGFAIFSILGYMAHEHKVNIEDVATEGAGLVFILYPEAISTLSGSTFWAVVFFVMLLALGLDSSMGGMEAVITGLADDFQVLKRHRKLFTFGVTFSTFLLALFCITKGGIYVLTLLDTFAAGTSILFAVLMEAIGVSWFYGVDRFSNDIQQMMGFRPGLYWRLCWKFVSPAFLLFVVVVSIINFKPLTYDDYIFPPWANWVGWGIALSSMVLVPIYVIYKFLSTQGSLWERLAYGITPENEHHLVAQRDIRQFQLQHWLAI
Chain of Androgen receptor (Homo sapiens) (P10275 whole entry): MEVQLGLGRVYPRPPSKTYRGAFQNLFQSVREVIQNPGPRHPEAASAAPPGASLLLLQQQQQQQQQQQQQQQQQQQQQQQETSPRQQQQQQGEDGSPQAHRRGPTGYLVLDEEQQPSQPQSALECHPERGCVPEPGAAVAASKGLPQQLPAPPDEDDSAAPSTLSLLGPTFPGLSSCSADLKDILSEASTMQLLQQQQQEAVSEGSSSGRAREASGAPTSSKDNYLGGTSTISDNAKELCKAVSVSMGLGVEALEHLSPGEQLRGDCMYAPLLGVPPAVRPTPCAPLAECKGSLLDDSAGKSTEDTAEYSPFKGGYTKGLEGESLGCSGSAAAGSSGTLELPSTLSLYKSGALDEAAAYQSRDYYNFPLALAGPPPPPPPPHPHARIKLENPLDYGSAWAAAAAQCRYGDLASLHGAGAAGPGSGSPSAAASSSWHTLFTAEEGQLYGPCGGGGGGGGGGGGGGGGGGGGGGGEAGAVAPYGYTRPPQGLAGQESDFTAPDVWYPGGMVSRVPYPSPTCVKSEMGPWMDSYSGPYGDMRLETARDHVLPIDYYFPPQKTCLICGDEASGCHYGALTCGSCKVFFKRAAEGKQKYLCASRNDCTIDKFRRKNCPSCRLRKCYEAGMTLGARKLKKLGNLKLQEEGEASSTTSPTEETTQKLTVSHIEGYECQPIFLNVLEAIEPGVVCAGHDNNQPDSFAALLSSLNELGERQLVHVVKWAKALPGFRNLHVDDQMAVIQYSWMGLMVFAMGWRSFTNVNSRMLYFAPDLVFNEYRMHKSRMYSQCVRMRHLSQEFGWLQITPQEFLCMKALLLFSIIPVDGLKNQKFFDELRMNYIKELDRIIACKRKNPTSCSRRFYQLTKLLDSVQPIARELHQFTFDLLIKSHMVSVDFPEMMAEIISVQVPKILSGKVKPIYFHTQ

SMILES: CCn1c(CNC(=O)c2ncc(C)nc2N)[n+](CC)c2ccc(C(=O)N(C)CN(C)C)cc21
residual activity [1]: 41% | residual activity [2]: 76% | activity at 10 µM [3]: 87% (not active) | residual activity [4]: 95% | residual activity [5]: 105% | residual activity [6]: 31% | residual activity [7]: 87% | residual activity [8]: 104% | residual activity [9]: 99% | residual activity [10]: 102% | residual activity [11]: 91% | residual activity [12]: 100% | residual activity [13]: 99% | residual activity [14]: 107% | residual activity [15]: 105% | residual activity [16]: 96%

inhibition [18]: 12.4% | inhibition [19]: 25.3% | inhibition [20]: 10.2% | inhibition [21]: 1.74%
SMILES: CCn1c(CNC(=O)c2nc(Cl)cnc2N)[n+](CC)c2ccc(C(=O)N(C)CCN(C)C)cc21
residual activity [1]: 36% | residual activity [2]: 50% | activity at 10 µM [3]: 66% (not active) | residual activity [4]: 95% | residual activity [5]: 97% | residual activity [6]: 97% | residual activity [7]: 99% | residual activity [8]: 100% | residual activity [9]: 101% | residual activity [10]: 103% | residual activity [11]: 105% | residual activity [12]: 105% | residual activity [13]: 106% | residual activity [14]: 109% | residual activity [15]: 110% | residual activity [17]: 113% | residual activity [16]: 119%
